*1 amine or outer side, *2 acyl side, *3 side chain or, on linkers, in order; H or OH if unused. Where a SMILES comes first, the peptide text is derived from it. Bridges are numbered along the chain shown (N, C = ends). [ ]: non-standard residue; d: D form. The star is where a group is joined. hPhe(3-Cl-4-CF3) = N[C@@H](CCc1ccc(C(F)(F)F)c(Cl)c1)C(=O)O; NPrPhe(4-CF3) = CCCN[C@@H](Cc1ccc(C(F)(F)F)cc1)C(=O)O; NEtAsp = CCN([C@@H](CC(=O)[*:3])C(=O)[*:2])[*:1]; X6 = CCCN([C@@H](COCCC(C)C)C(=O)[*:2])[*:1]; NMeGly(cPent) = CN[C@H](C(=O)O)C1CCCC1; NMeD = CN[C@@H](CC(=O)O)C(=O)O; NMeL = CN[C@@H](CC(C)C)C(=O)O; Morpholide = C1CN(*)CCO1; NMeA = CN[C@@H](C)C(=O)O; Aze = O=C(O)[C@@H]1CCN1; Ac4c = NC1(C(=O)O)CCC1; Sar = CNCC(=O)O
What was measured:
[1] = biological target: GDP-bound HRAS wild-type protein (Homo sapiens, UniProt P01112); assay: Binding to HRAS by surface plasmon resonance (SPR), Single Cycle Kinetics; conditions: ratio of KD for GDP-bound HRAS wild-type protein to KD for KRAS, SPR
Chain of GDP-bound HRAS wild-type protein (P01112 whole entry): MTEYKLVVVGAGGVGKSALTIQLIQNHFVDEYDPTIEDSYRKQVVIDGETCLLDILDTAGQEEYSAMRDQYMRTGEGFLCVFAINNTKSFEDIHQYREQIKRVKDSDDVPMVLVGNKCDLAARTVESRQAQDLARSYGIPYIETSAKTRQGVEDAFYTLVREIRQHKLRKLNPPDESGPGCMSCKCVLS

[2] = biological target: GDP-bound NRAS wild-type protein (Homo sapiens, UniProt P01111); assay: Binding to NRAS by surface plasmon resonance (SPR), Single Cycle Kinetics; conditions: ratio of KD for GDP-bound NRAS wild-type protein to KD for KRAS, SPR
Chain of GDP-bound NRAS wild-type protein (P01111 whole entry): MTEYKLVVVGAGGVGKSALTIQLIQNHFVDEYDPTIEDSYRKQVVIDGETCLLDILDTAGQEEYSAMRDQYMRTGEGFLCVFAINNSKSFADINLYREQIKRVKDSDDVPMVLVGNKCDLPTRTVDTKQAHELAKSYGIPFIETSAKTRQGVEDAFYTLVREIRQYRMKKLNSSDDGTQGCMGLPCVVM

[3] = biological target: GDP-bound KRAS wild-type protein (Homo sapiens, UniProt P01116); assay: Binding to KRAS by surface plasmon resonance (SPR), Single Cycle Kinetics; conditions: SPR, Single Cycle Kinetics, GDP-bound KRAS wild-type protein; read-out: KRAS KD
Chain of GDP-bound KRAS wild-type protein (P01116 whole entry): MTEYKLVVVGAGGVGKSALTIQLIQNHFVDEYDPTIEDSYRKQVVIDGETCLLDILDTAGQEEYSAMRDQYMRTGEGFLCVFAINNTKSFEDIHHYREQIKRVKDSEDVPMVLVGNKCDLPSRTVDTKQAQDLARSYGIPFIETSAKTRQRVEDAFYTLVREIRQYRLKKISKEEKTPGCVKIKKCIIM

[4] = test system: human lung cancer strain NCI-H441; assay: cells; conditions: NCI-H441, 96 h, read-out: NCI-H441 IC50 (nM), NCI-H441 cell proliferation, 4 days, CellTiter-Glo;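 note: cell proliferation inhibition after four days measured by CellTiter-Glo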

## CCO[C@@H]1C[C@H]2C(=O)NC3(CC(C)(C)C3)C(=O)N(C)[C@@H](C3CCCC3)C(=O)N(C)[C@H](C(=O)N(C)C)CC(=O)N(C)[C@@H](CC(F)(F)F)C(=O)N[C@@H]([C@@H](C)CC)C(=O)N(C)CC(=O)N(C)[C@H]3C/C=C\CCN(C3=O)[C@@H](Cc3ccc(C(F)(F)F)cc3)C(=O)N(C)CC(=O)N[C@@H](CCc3ccc(C(F)(F)F)c(OC)c3)C(=O)N2C1 [PP1675]
[1]
  HRAS/KRAS (KD ratio): B (a compound having 3 or more and less than 10 is denoted as B)
[2]
  NRAS/KRAS (KD ratio): A (a compound having 10 or more and less than 20 is denoted as A)
[3]
  Kd: 0.071 nM
[4]
  IC50: 3 nM

## CCCN1C(=O)CN(C)C(=O)CN(C)C(=O)[C@H]([C@@H](C)CC)NC(=O)[C@H](CC(C)C)N(C)C(=O)C[C@@H](C(=O)N2CCOCC2)N(C)C(=O)[C@H](C2CCCC2)N(C)C(=O)C2(CCC2)NC(=O)[C@@H]2CCCN2C(=O)[C@H](CCc2ccc(C(F)(F)F)c(Cl)c2)NC(=O)CN(C)C(=O)[C@@H]1COCCC(C)C [PP1817] ([NMeL]I[Sar][Sar][X6][Sar][hPhe(3-Cl-4-CF3)]P[Ac4c][NMeGly(cPent)][NMeD]-Morpholide; lactam N-11)
[1]
  HRAS/KRAS (KD ratio): C (A compound having a KD ratio of 0.1 or more and less than 3 is denoted as C)
[2]
  NRAS/KRAS (KD ratio): C (A compound having a KD ratio of 0.1 or more and less than 3 is denoted as C)
[3]
  Kd: 0.47 nM
[4]
  IC50: 20.4 nM

## CCCN1C(=O)[C@@H]2CCN2C(=O)[C@H](C)N(C)C(=O)[C@H]([C@@H](C)CC)NC(=O)[C@H](CC(C)C)N(C)C(=O)C[C@@H](C(=O)N(C)C)N(CC)C(=O)[C@H](C2CCCC2)N(C)C(=O)C2(CCC2)NC(=O)[C@@H]2CCCN2C(=O)[C@H](CCc2ccc(C(F)(F)F)c(Cl)c2)NC(=O)CN(C)C(=O)[C@@H]1Cc1ccc(C(F)(F)F)cc1 [PP1957] ([NMeL]I[NMeA][Aze][NPrPhe(4-CF3)][Sar][hPhe(3-Cl-4-CF3)]P[Ac4c][NMeGly(cPent)][NEtAsp]-NMe2; lactam N-11)
[1]
  HRAS/KRAS (KD ratio): B (a compound having 3 or more and less than 10 is denoted as B)
[2]
  NRAS/KRAS (KD ratio): C (A compound having a KD ratio of 0.1 or more and less than 3 is denoted as C)
[3]
  Kd: 0.36 nM
[4]
  IC50: 8.6 nM

## CCCN(C)C(=O)[C@@H]1CC(=O)N(C)[C@@H](CCOC)C(=O)N[C@@H]([C@@H](C)CC)C(=O)N(C)CC(=O)N(C)[C@H]2C/C=C\CCN(C2=O)[C@@H](Cc2ccc(C(F)(F)F)cc2)C(=O)N(C)CC(=O)N[C@@H](CCc2cc(F)c(C(F)(F)F)c(F)c2)C(=O)N2C[C@@H](C)C[C@H]2C(=O)NC2(CC(C)(C)C2)C(=O)N(C)[C@@H](C2CCCC2)C(=O)N1C [PP1974]
[1]
  HRAS/KRAS (KD ratio): A (a compound having 10 or more and less than 20 is denoted as A)
[2]
  NRAS/KRAS (KD ratio): A (a compound having 10 or more and less than 20 is denoted as A)
[3]
  Kd: 0.18 nM
[4]
  IC50: 50 nM

## CCO[C@@H]1C[C@H]2C(=O)NC3(CC(C)(C)C3)C(=O)N(C)[C@@H](C3CCCC3)C(=O)N(C)[C@H](C(=O)N(C)C)CC(=O)N(CC)[C@@H](CC(C)C)C(=O)N[C@@H]([C@@H](C)CC)C(=O)NCC(=O)N(C)[C@H]3C/C=C\CCN(C3=O)[C@@H](Cc3ccc(C(F)(F)F)cc3)C(=O)N(C)CC(=O)N[C@@H](CCc3cc(F)c(C(F)(F)F)c(F)c3)C(=O)N2C1 [PP1772]
[1]
  HRAS/KRAS (KD ratio): B (a compound having 3 or more and less than 10 is denoted as B)
[2]
  NRAS/KRAS (KD ratio): B (a compound having 3 or more and less than 10 is denoted as B)
[3]
  Kd: 0.23 nM
[4]
  IC50: 13.4 nM

## CCC[C@H]1C(=O)N[C@@H]([C@@H](C)CC)C(=O)N(C)CC(=O)N(C)[C@H]2C/C=C\CCN(C2=O)[C@@H](Cc2ccc(C(F)(F)F)cc2)C(=O)N(C)CC(=O)N[C@@H](CCc2ccc(C(F)(F)F)c(OC)c2)C(=O)N2C[C@H](OCC)C[C@H]2C(=O)NC2(CC(C)(C)C2)C(=O)N(C)[C@@H](C2CCCC2)C(=O)N(C)[C@H](C(=O)N(C)CC)CC(=O)N1C [PP1676]
[1]
  HRAS/KRAS (KD ratio): A (a compound having 10 or more and less than 20 is denoted as A)
[2]
  NRAS/KRAS (KD ratio): A (a compound having 10 or more and less than 20 is denoted as A)
[3]
  Kd: 0.12 nM
[4]
  IC50: 5 nM

## CC[C@H](C)[C@@H]1NC(=O)[C@H](CC2CCC2)N(C)C(=O)C[C@@H](C(=O)N(C)C)N(C)C(=O)[C@H](C2CCCC2)N(C)C(=O)C2(CC(C)(C)C2)NC(=O)[C@@H]2C[C@H](C)CN2C(=O)[C@H](CCc2cc(F)c(C(F)(F)F)c(F)c2)NC(=O)CN(C)C(=O)[C@H](Cc2ccc(C(F)(F)F)cc2)N2CC/C=C\C[C@@H](C2=O)N(C)C(=O)CN(C)C1=O [PP1684]
[1]
  HRAS/KRAS (KD ratio): A (a compound having 10 or more and less than 20 is denoted as A)
[2]
  NRAS/KRAS (KD ratio): A (a compound having 10 or more and less than 20 is denoted as A)
[3]
  Kd: 0.15 nM
[4]
  IC50: 7.7 nM

## CCO[C@@H]1C[C@H]2C(=O)NC3(CC(C)(C)C3)C(=O)N(C)[C@@H](C3CCCC3)C(=O)N(C)[C@H](C(=O)N(C)C)CC(=O)N(C)[C@@H](CC3CCC3)C(=O)N[C@@H]([C@@H](C)CC)C(=O)N(C)CC(=O)N(C)[C@H]3C/C=C\CCN(C3=O)[C@@H](Cc3ccc(C(F)(F)F)cc3)C(=O)N(C)CC(=O)N[C@@H](CCc3ccc(C(F)(F)F)c(Cl)c3)C(=O)N2C1 [PP1752]
[1]
  HRAS/KRAS (KD ratio): A (a compound having 10 or more and less than 20 is denoted as A)
[2]
  NRAS/KRAS (KD ratio): A (a compound having 10 or more and less than 20 is denoted as A)
[3]
  Kd: 0.085 nM
[4]
  IC50: 5.8 nM

## CCC[C@H]1C(=O)N[C@@H]([C@@H](C)CC)C(=O)N(C)CC(=O)N(C)[C@H]2C/C=C\CCN(C2=O)[C@@H](Cc2ccc(C)cc2)C(=O)N(C)CC(=O)N[C@@H](CCc2ccc(C(F)(F)F)c(Cl)c2)C(=O)N2C[C@H](OCC)C[C@H]2C(=O)NC2(CCC2)C(=O)N(C)[C@@H](C2CCCC2)C(=O)N(C)[C@H](C(=O)N(C)CC)CC(=O)N1C [PP1895]
[1]
  HRAS/KRAS (KD ratio): B (a compound having 3 or more and less than 10 is denoted as B)
[2]
  NRAS/KRAS (KD ratio): A (a compound having 10 or more and less than 20 is denoted as A)
[3]
  Kd: 0.13 nM
[4]
  IC50: 15.6 nM

## CC[C@H](C)[C@@H]1NC(=O)[C@H](CC(F)(F)F)N(C)C(=O)C[C@@H](C(=O)N(C)C)N(C)C(=O)[C@H](C2CCCC2)N(C)C(=O)C2(CC(C)(C)C2)NC(=O)[C@@H]2CC(F)(F)CN2C(=O)[C@H](CCc2cc(F)c(C(F)(F)F)c(F)c2)NC(=O)CN(C)C(=O)[C@H](Cc2ccc(C(F)(F)F)cc2)N2CC/C=C\C[C@@H](C2=O)N(C)C(=O)CN(C)C1=O [PP1710]
[1]
  HRAS/KRAS (KD ratio): B (a compound having 3 or more and less than 10 is denoted as B)
[2]
  NRAS/KRAS (KD ratio): A (a compound having 10 or more and less than 20 is denoted as A)
[3]
  Kd: 0.1 nM
[4]
  IC50: 4.1 nM

## CCO[C@@H]1C[C@H]2C(=O)NC3(CC(C)(C)C3)C(=O)N(C)[C@@H](C3CCCC3)C(=O)N(C)[C@H](C(=O)N(C)C)CC(=O)N(C)[C@@H](CC3CCC3)C(=O)N[C@@H]([C@@H](C)CC)C(=O)N(C)CC(=O)N(C)[C@H]3C/C=C\CCN(C3=O)[C@@H](Cc3ccc(C(F)(F)F)cc3)C(=O)N(C)CC(=O)N[C@@H](CCc3cc(F)c(C(F)(F)F)c(F)c3)C(=O)N2C1 [PP1651]
[1]
  HRAS/KRAS (KD ratio): B (a compound having 3 or more and less than 10 is denoted as B)
[2]
  NRAS/KRAS (KD ratio): A (a compound having 10 or more and less than 20 is denoted as A)
[3]
  Kd: 0.079 nM
[4]
  IC50: 2.3 nM

## CCCN1C(=O)CN(C)C(=O)CN(C)C(=O)[C@H]([C@@H](C)CC)NC(=O)[C@H](CC(C)C)N(C)C(=O)C[C@@H](C(=O)N2CCOCC2)N(C)C(=O)[C@H](C2CCCC2)N(C)C(=O)C2(CCC2)NC(=O)[C@H](C)N(C)C(=O)[C@H](CCc2ccc(C(F)(F)F)c(Cl)c2)NC(=O)CN(C)C(=O)[C@@H]1Cc1ccc(C(F)(F)F)cc1 [PP1916] ([NMeL]I[Sar][Sar][NPrPhe(4-CF3)][Sar][hPhe(3-Cl-4-CF3)][NMeA][Ac4c][NMeGly(cPent)][NMeD]-Morpholide; lactam N-11)
[1]
  HRAS/KRAS (KD ratio): C (A compound having a KD ratio of 0.1 or more and less than 3 is denoted as C)
[2]
  NRAS/KRAS (KD ratio): B (a compound having 3 or more and less than 10 is denoted as B)
[3]
  Kd: 0.49 nM
[4]
  IC50: 16.8 nM

## CCO[C@@H]1C[C@H]2C(=O)NC3(CC(C)(C)C3)C(=O)N(C)[C@@H](C3CCCC3)C(=O)N(C)[C@H](C(=O)N(C)CC)CC(=O)N(C)[C@@H](C3CC3)C(=O)N[C@@H]([C@@H](C)CC)C(=O)N(C)CC(=O)N(C)[C@H]3C/C=C\CCN(C3=O)[C@@H](Cc3ccc(C(F)(F)F)cc3)C(=O)N(C)CC(=O)N[C@@H](CCc3ccc(C(F)(F)F)c(OC)c3)C(=O)N2C1 [PP1981]
[1]
  HRAS/KRAS (KD ratio): A (a compound having 10 or more and less than 20 is denoted as A)
[2]
  NRAS/KRAS (KD ratio): A (a compound having 10 or more and less than 20 is denoted as A)
[3]
  Kd: 0.1 nM
[4]
  IC50: 20.7 nM
